# Measured values from ChEMBL document CHEMBL1201862, “PubChem BioAssay data set” (2004).
# Calls of active or inactive are those of the source.
# Experiments:
# Cytochrome P450 2C19 = Cytochrome P450 2C19 (Homo sapiens, UniProt P33261); test: Cytochrome panel assay with activity outcomes. Panel member name: p450-cyp2c19 Compounds with AC50 equal or less than 10 uM are considered active; format: functional
# [1] = viability of uninfected HEp-2 cells – cell-based, HTS, cytotoxicity control for RSV inhibitor project, dose response (AID 2410); format: functional; details: human respiratory syncytial virus
# [2] = NIH3T3 cell viability loss – ATP luminescence, mouse fibroblasts, counter-screen, dose response (AID 2010); format: functional, cell-based;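 also: cells exposed to compound for about 90 hours before reading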
# [3] = Trypanosoma cruzi growth suppression in host cells – NIH3T3 host cells, beta-gal luminescence, confirmation (AID 2044); format: functional, cell-based;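 also: intracellular parasites grown in NIH/3T3 mouse fibroblasts as host cells; luminescent beta-galactosidase reporter signal from transgenic T. cruzi replicating inside host cells; inhibitors lower the luminescence signal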
# Cytochrome P450 2C9 = Cytochrome P450 2C9 (Homo sapiens, UniProt P11712)
# Cytochrome P450 3A4 = Cytochrome P450 3A4 (Homo sapiens, UniProt P08684);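 also: CYP3A4 tested as one member of a cytochrome P450 panel screen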
# [4] = test system: Streptococcus sp. 'group A'; test: Streptococcus pyogenes SK(-)GAS viability under kanamycin – luminescence, BacTiterGlo, confirmation, counter-screen for streptokinase expression inhibitor project, dose response (AID 1900); format: functional, organism-based
# Streptococcus = test: GAS UMAA2166 growth inhibition – luminescence, BacTiterGlo, counter-screen for streptokinase expression inhibitor project, dose response (AID 1915); format: functional, organism-based;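 also: potency for reduction of bacterial viability or growth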
# [5] = Luminescence Cell-Based Dose Retest to Confirm Inhibitors of Cancer Stem Cells. [Related pubchem assays (depositor defined):AID2717, AID2721]; format: functional; details: Homo sapiens
# Cytochrome P450 2D6 = Cytochrome P450 2D6 (Homo sapiens, UniProt P10635);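 also: CYP2D6 member of a cytochrome P450 panel assay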
# [6] = reduction of Shn3 3'UTR-driven luciferase in osteoblasts – cell-based, Clone20 osteoblasts, firefly luciferase, cherry-picked, dose response (AID 624132); format: functional;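 also: firefly luciferase luminescence from reporter carrying the Shn3 3'UTR in osteoblasts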
# Chain of Cytochrome P450 2C9 (P11712 whole entry): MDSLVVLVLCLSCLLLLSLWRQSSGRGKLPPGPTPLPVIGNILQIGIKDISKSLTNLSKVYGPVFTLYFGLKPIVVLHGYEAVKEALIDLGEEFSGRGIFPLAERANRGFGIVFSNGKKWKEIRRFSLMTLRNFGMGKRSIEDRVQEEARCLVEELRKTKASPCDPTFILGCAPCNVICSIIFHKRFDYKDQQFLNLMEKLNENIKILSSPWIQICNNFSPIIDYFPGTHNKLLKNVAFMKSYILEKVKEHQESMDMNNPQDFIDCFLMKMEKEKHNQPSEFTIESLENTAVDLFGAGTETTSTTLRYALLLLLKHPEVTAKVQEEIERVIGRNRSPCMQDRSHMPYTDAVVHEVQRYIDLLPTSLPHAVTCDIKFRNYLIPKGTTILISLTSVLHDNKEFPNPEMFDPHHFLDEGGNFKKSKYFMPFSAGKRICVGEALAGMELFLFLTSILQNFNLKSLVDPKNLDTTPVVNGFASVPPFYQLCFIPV
# Chain of Cytochrome P450 3A4 (P08684 whole entry): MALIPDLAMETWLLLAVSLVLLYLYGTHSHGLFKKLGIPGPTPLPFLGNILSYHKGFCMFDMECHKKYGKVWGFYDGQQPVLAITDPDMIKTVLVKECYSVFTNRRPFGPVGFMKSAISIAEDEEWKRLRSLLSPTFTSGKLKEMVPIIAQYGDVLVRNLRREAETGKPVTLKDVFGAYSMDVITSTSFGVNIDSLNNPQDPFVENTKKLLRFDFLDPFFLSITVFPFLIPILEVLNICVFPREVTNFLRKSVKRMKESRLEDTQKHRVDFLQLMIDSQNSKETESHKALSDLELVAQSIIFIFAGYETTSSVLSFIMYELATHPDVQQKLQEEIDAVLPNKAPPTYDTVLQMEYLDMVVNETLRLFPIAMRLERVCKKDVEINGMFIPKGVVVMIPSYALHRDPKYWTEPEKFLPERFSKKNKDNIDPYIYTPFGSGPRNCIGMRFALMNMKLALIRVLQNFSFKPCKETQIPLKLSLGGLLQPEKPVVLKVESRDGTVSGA
# Chain of Cytochrome P450 2C19 (P33261 whole entry): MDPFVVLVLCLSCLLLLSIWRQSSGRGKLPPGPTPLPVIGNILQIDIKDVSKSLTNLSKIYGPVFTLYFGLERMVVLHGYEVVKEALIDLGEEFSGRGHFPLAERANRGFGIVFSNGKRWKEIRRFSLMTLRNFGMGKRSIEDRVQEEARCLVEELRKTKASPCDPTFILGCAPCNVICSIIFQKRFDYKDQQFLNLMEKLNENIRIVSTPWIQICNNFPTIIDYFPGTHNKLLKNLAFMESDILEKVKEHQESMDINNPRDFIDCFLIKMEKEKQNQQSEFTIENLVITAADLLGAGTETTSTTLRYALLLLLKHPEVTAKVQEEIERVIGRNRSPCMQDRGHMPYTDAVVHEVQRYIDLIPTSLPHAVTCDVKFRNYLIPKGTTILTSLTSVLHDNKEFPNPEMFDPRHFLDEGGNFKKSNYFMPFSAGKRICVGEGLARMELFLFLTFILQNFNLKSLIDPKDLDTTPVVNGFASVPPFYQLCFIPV
# Chain of Cytochrome P450 2D6 (P10635 whole entry): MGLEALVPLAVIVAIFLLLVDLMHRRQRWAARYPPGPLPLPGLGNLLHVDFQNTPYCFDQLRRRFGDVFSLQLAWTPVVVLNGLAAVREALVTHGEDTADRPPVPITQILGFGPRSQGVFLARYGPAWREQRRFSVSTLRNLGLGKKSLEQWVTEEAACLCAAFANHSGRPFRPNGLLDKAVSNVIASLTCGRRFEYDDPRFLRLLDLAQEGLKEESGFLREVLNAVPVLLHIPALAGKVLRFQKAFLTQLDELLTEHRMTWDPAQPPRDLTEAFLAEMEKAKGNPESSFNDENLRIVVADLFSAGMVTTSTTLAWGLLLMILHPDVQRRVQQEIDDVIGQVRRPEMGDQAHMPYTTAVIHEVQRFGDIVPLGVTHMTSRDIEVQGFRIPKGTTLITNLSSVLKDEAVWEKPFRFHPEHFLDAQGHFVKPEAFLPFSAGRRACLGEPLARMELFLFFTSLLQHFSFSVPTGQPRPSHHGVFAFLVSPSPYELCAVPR
structure (smiles),measurement,setting,value
COC(=O)[C@@]1(Cc2ccc(OC)cc2)[C@H]2c3cc(C(=O)N4CCCC4)n(Cc4ccc(OC(F)(F)F)cc4)c3C[C@H]2CN1C(=O)c1ccccc1,AC50,Cytochrome P450 2C19; read-out: AC50,7.94 µM (inconclusive)
COc1ccc2cc(S(=O)(=O)n3cnc(C)c3)ccc2c1,CC50,[1],> 50 µM (active)
Cc1ccc(C2CC(c3cccs3)=NN2C(=O)CSc2nc3ccccc3o2)cc1 (configuration not stated),CC50,[1],30.2 µM (active)
O=S(=O)(c1ccc(Cl)cc1)N1CCN(C2CCN(Cc3ccccc3)CC2)CC1,EC50,[2],> 60 µM (not active)
same,EC50,[3],1.07 µM (active)
COc1cccc(/N=C/c2c[nH]nc2O)c1,AC50,Cytochrome P450 2C19; read-out: AC50,35.5 µM (inconclusive)
same,AC50,Cytochrome P450 2C9,20 µM (inconclusive)
C[C@]12CCC3C(CC[C@H]4CC(O)CC[C@]34C)C1CC/C2=N/O (some centres not stated),CC50,[1],> 50 µM (active)
CCOC(=O)[C@@H](O)Cc1cnc2ccccc2n1,AC50,Cytochrome P450 2C9,3.98 µM (inconclusive)
Cc1nc(N2CCC(C)CC2)c2c(C)c(C(=O)Nc3ccc(C(F)(F)F)cc3)sc2n1,EC50,[2],> 60 µM (inconclusive)
same,EC50,[3],1.41 µM (active)
COc1ccc2c(=O)cc(-c3ccncc3)oc2c1OC,AC50,Cytochrome P450 3A4,3.98 µM (inconclusive)
CCOc1ccc(N/C(C)=C/C(=O)c2ccc(C)o2)cc1,EC50,[2],> 60 µM (not active)
same,EC50,[3],2.98 µM (active)
Cc1ccc(C(=O)N2C3C=CC(C3)C2(C(F)(F)F)C(F)(F)F)cc1 (configuration not stated),AC50,Cytochrome P450 2C9,39.8 µM (inconclusive)
CC1CCCC(NC(=O)C2CCCN2S(=O)(=O)c2cccc3nsnc23)C1C (configuration not stated),CC50,[1],23.6 µM (active)
COc1c(N2CCN(C(=S)Nc3ccc(F)cc3)C(C)C2)c(F)cc2c(=O)c(C(=O)O)cn(C3CC3)c12 (configuration not stated),AC50,Cytochrome P450 2C19; read-out: AC50,39.8 µM (inconclusive)
COc1c(N2CCN(C(S)=Nc3ccc(F)cc3)C(C)C2)c(F)cc2c(=O)c(C(=O)O)cn(C3CC3)c12 (configuration not stated),EC50,[4],4.5 µM (active)
same,EC50,Streptococcus,5.79 µM (active)
Oc1ccc2c3c1O[C@H]1c4oc5ccccc5c4C[C@]4(O)[C@H](C2)N(CC2CC2)CC[C@@]314,AC50,Cytochrome P450 3A4,20 µM (inconclusive)
CCOc1ccccc1NC(=O)Nc1ccc(CC#N)cc1,CC50,[1],28 µM (active)
COc1ccc(C)cc1Nc1n[n+](-c2ccccc2)c(-c2cccc(Cl)c2Cl)s1,EC50,[2],15.4 µM (active)
same,EC50,[3],3 µM (active)
Cc1nn2c(COc3ccc(NC(=O)c4ccccc4)cc3)nnc2c2ccccc12,EC50,[4],0.854 µM (active)
same,EC50,Streptococcus,0.859 µM (active)
C/C(=N\c1ccccc1C)C1=C(O)SCC1=O,CC50,[1],32.3 µM (active)
COC(=O)c1cc(NC(=O)c2cc(-c3ccc(Cl)cc3)oc2C(F)(F)F)ccc1N1CCOCC1,EC50,[2],> 60 µM (not active)
same,EC50,[3],3.3 µM (active)
C[C@@H]1O[C@H](O[C@@H]2CC[C@@]3(C=O)[C@H]4CC[C@@]5(C)[C@@H](C6=CC(=O)OC6)CC[C@@]5(O)[C@@H]4CC[C@]3(O)C2)C[C@H](O)[C@@H]1O,AC50,Cytochrome P450 3A4,15.8 µM (inconclusive)
N=C(N)N/N=C/c1ccc(Cl)c([N+](=O)[O-])c1,EC50,[2],> 60 µM (not active)
same,EC50,[3],0.108 µM (active)
Clc1ccc(OCCOCCN2CCCCC2)c(Br)c1,EC50,[2],13.2 µM (active)
same,EC50,[3],0.166 µM (active)
CCCCCOc1ccc(C(=O)NCC2(c3ccccc3)CCOCC2)cc1,AC50,Cytochrome P450 3A4,31.6 µM (inconclusive)
CC(Oc1ccc(-c2ccccc2)c(F)c1)c1ccn(S(=O)(=O)c2ccc(Cl)cc2)n1 (configuration not stated),AC50,Cytochrome P450 3A4,15.8 µM (inconclusive)
Cc1ccc(-n2nc3c(N4CCC(C(=O)NCc5cccc(F)c5)CC4)nnc(C)c3c2C)cc1,CC50,[1],32.7 µM (active)
N#Cc1ccc(C(c2ccc(C#N)cc2)n2cncn2)cc1 [LETROZOLE],AC50,Cytochrome P450 2C19; read-out: AC50,7.94 µM (inconclusive)
Cc1sc2nc(SCC(=O)C(C)(C)C)n(Cc3ccco3)c(=O)c2c1C,AC50,Cytochrome P450 2C19; read-out: AC50,5.01 µM (inconclusive)
CC1CC(C)CN(C(=O)c2cc3cc(Br)cc(Br)c3o2)C1 (configuration not stated),CC50,[1],18.9 µM (active)
C=CCn1c(SCC(=O)NC2CCCCC2)nnc1C1CCCCC1,AC50,Cytochrome P450 2C19,inconclusive
same,AC50,Cytochrome P450 2C9,28.2 µM (inconclusive)
CCCCCCCCCCCCCC(=O)O[C@H]1[C@@H](C)[C@@]2(O)[C@@H](C=C(CO)C[C@]3(O)C(=O)C(C)=C[C@@H]23)C2C(C)(C)[C@]21OC(C)=O (some centres not stated),AC50,Cytochrome P450 2C9,10 µM (inconclusive)
CC(C)=CCc1c(O)ccc(C(=O)Cc2ccccc2)c1O,AC50,[5],3.82 µM (active)
Oc1ccccc1/N=C/c1c[nH]nc1O,AC50,Cytochrome P450 2C19,inconclusive
same,AC50,Cytochrome P450 2C9,8.91 µM (inconclusive)
Oc1nc2ccc(Br)cc2c(-c2ccccc2)c1CN1CCOCC1,CC50,[1],48.4 µM (active)
COCCn1c(=O)c(CCc2ccccc2)nc2cnc(OC)nc21,AC50,Cytochrome P450 2C9,20 µM (inconclusive)
COCC(C)NCc1cccc(C)c1 (configuration not stated),AC50,Cytochrome P450 2D6,14.1 µM (inconclusive)
CCOc1cc(NC(=O)c2cccc(C)c2)c(OCC)cc1N=C(S)NCC1CCCO1 (configuration not stated),AC50,Cytochrome P450 2C9,7.94 µM (inconclusive)
O/N=C/c1cc(Cl)ccc1OCc1ccccc1Cl,AC50,[5],4.45 µM (active)
ON(CCc1ccccn1)Cc1ccccc1,AC50,Cytochrome P450 3A4,3.98 µM (inconclusive)
CCOC(=O)CSc1cc(C(F)(F)F)nc(-c2ccccn2)n1,AC50,Cytochrome P450 2C19; read-out: AC50,17.8 µM (inconclusive)
same,AC50,Cytochrome P450 2C9,39.8 µM (inconclusive)
O=C(O)C(Cc1cccs1)C(=O)O,AC50,Cytochrome P450 2C19,inconclusive
C=C(Br)CN(C)CC(=C)Br,AC50,Cytochrome P450 2C19,inconclusive
FC(F)(F)c1cnc(N2CCC(=NOCc3ccc(Cl)cc3)CC2)c(Cl)c1,AC50,Cytochrome P450 2C19; read-out: AC50,20 µM (inconclusive)
Cc1cccc2cc(CN(Cc3nnnn3Cc3ccco3)C3CCCC3)c3nnnn3c12,CC50,[1],> 50 µM (active)
COc1cccc(-c2nc(CS(=O)(=O)CC(=O)NCCCOC(C)C)c(C)o2)c1,AC50,Cytochrome P450 2C19; read-out: AC50,17.8 µM (inconclusive)
same,AC50,Cytochrome P450 2C9,11.2 µM (inconclusive)
CCOC(=O)c1sc(NC(=O)Nc2ccccc2Cl)cc1C,EC50,[2],> 30 µM (not active)
same,AC50,[5],5.37 µM (active)
same,EC50,[3],2.26 µM (active)
CCCn1cnc2c(SCC(=O)O)nc(N)nc21,AC50,Cytochrome P450 2C19,inconclusive
O=C(NCc1ccc(Cl)cc1)c1cccc(NC(=O)c2ccccc2)c1,AC50,[5],5.29 µM (active)
Cc1cc(C(=O)N2CCc3c([nH]c4ccccc34)C2c2cccc(Cl)c2)nn1C (configuration not stated),EC50,[2],> 60 µM (not active)
same,EC50,[3],2.17 µM (active)
O=C(Cn1ccnc1)c1ccc(Cl)cc1,EC50,[2],> 30 µM (not active)
same,EC50,[3],> 30 µM (not active)
Cc1ccc(N(C(C)C(=O)Nc2cc(Cl)ccc2Oc2ccccc2)S(C)(=O)=O)cc1 (configuration not stated),AC50,Cytochrome P450 2D6,15.8 µM (inconclusive)
CCNC(=Nc1ccc(Cl)cc1)c1cccnc1,AC50,Cytochrome P450 3A4,22.4 µM (inconclusive)
same,AC50,Cytochrome P450 2C19; read-out: AC50,1.78 µM (inconclusive)
CCN1CCN(c2ccc(S(=O)(=O)N3CCOCC3)cc2NC(=O)CCC(C)C)CC1,EC50,[2],> 60 µM (not active)
same,EC50,[3],1.34 µM (active)
CCOC(=O)c1nnn(-c2nonc2N)c1-c1ccccc1,AC50,Cytochrome P450 2C9,10 µM (inconclusive)
CCN1CCN(CC(=O)Nc2ccc(S(=O)(=O)N3C(C)CCCC3C)cc2)CC1 (configuration not stated),EC50,[2],> 60 µM (not active)
same,EC50,[3],1.07 µM (active)
CN(CCc1ccccn1)Cc1ccc(Cl)cc1Cl,AC50,Cytochrome P450 2C9,6.31 µM (inconclusive)
C=CCOc1cccc(CNn2cnnc2S)c1,AC50,Cytochrome P450 3A4,28.2 µM (inconclusive)
same,AC50,Cytochrome P450 2C9,6.31 µM (inconclusive)
O=C(Nc1ccccc1N1CCOCC1)c1cc2c(s1)CCCCC2,CC50,[1],> 50 µM (active)
CC(=O)N1CCC2(CC1)CN(c1ccccc1)C2,AC50,Cytochrome P450 2C19,inconclusive
Cc1cc(C(=O)COc2ccc(Cl)cc2Br)c(C)n1C,CC50,[1],> 50 µM (active)
c1ccc(Nc2nc(-c3ccncc3)cs2)nc1,EC50,[2],> 60 µM (not active)
same,EC50,[3],0.526 µM (active)
N#C/C(=C\c1ccc(Oc2ccc(C(F)(F)F)cc2[N+](=O)[O-])cc1)c1nc2ccccc2[nH]1,AC50,Cytochrome P450 3A4,11.2 µM (inconclusive)
COc1ccc(-c2nc(-c3cc([N+](=O)[O-])ccc3C)c(-c3ccccc3)[nH]2)cc1OC,CC50,[1],21.4 µM (active)
CCOC(=O)c1c(NC(=O)c2nn(CC)cc2Br)sc(C)c1C,AC50,[6],11 µM (active)
CC(C)COP(=O)(c1ccc(N(C)C)cc1)C(O)c1ccccc1F (configuration not stated),AC50,Cytochrome P450 3A4,3.98 µM (inconclusive)
same,AC50,Cytochrome P450 2C9,12.6 µM (inconclusive)
CCOc1ccccc1NC(=O)CSc1nc2c(c(=O)n1C)SC(C)C2 (configuration not stated),CC50,[1],35.2 µM (active)
OCCC1CN(Cc2cccc(C(F)(F)F)c2)CCN1Cc1ccccc1 (configuration not stated),EC50,[2],> 60 µM (inconclusive)
same,EC50,[3],1.33 µM (active)
Cc1cccc(-c2nc(Nc3cccc(O)c3)c3ccccc3n2)c1,AC50,[5],3.88 µM (active)
Cc1c(C2(O)CCCCC2)[nH]c2cc(C(F)(F)F)ccc12,AC50,[5],7.81 µM (active)
Cc1ccc(S(=O)(=O)NCC(=O)N(CC(=O)NCc2ccco2)Cc2cccs2)cc1,AC50,Cytochrome P450 2C9,15.8 µM (inconclusive)
CC(C)=CCc1c(O)c(CC=C(C)C)c2occ(-c3ccc(O)cc3)c(=O)c2c1O,EC50,[4],2.66 µM (active)
same,AC50,[5],2.62 µM (active)
same,EC50,Streptococcus,3.28 µM (active)
O=C(O)c1cc2c(ccc3ccccc32)[nH]1,CC50,[1],30.9 µM (active)
CCCCNc1c(-c2ccc(SC(C)CC)cc2)nc2ccccn12 (configuration not stated),AC50,[5],4.29 µM (active)
COc1ccc(N2CCN(C(=O)CSc3nnc4c(C)cc5cc(C)ccc5n34)CC2)cc1,CC50,[1],> 50 µM (active)
CC(C)=CCC/C(C)=C/CO/N=C1/[C@H]2O[C@@H]2[C@@H](O)[C@H]2[C@H]1CCn1c(=O)n(Cc3cc4c(cc3Cl)OCO4)c(=O)n12,AC50,Cytochrome P450 3A4,3.98 µM (inconclusive)
